Data taken from publication PMC5099944, “Design, synthesis and biological evaluation of hybrids of β-carboline and salicylic acid as potential anticancer and apoptosis inducing agents” (Scientific Reports, 2016).
Entries after “also recorded” stand apart in the source; their conditions may differ.

Legend:
SMMC-7721 cells [1] = experiment: MTT assay, proliferation of SMMC-7721 cells; format: cell-based, human; conditions: Homo sapiens; for IC50: SMMC-7721, 48 h, read-out: In vitro cytotoxicity (IC50) SMMC-7721, MTT assay, 48 h, SMMC-7721 human hepatocellular carcinoma cells
Procedure: (§1) The in vitro antitumor activities of the synthesized compounds 7a-l and 8a-l against five human cancer cells were evaluated in MTT assays using 5-fluorouracil (5-FU) and harmine as positive controls. These cells are human hepatocellular carcinoma cells (SMMC-7721 and Hep G2), human colon cancer cell lines (HCT116), human bladder carcinoma cells (EJ), and human lung cancer cells (H460).
(§2) Hepatocellular carcinoma cells (SMMC-7721 and Hep G2), Human colon cancer cell lines (HCT116), human bladder carcinoma cells (EJ) or human lung cancer cells (H460) at 10^4 cells per well were cultured in 10% FBS DMEM in 96-well flat-bottom microplates overnight. The cells were incubated in triplicate with, or without, different concentrations of each test compound for 48 h. During the last 4 h incubation, 30 μL of tetrazolium dye (MTT) solution (5 mg mL^−1) was added to each well. The resulting MTT-formazan crystals were dissolved in 150 μL DMSO, and absorbance was measured spectrophotometrically at 570 nm using an ELISA plate reader. The inhibition induced by each test compound at the indicated concentrations was expressed as a percentage. The concentration required for 50% inhibition (IC50) was calculated using the software (GraphPadPrism Version 4.03).

Hep G2 cells = experiment: MTT assay, proliferation of Hep G2 cells; format: cell-based; conditions: Homo sapiens, HepG2, 48 h, read-out: In vitro cytotoxicity (IC50) Hep G2
Procedure: as §1, §2

SMMC-7721 cells [2] = experiment: Flow cytometry assay of cell apoptosis (FITC-Annexin V/PI); format: cell-based, human; conditions: 14 μM, 48 h
Procedure: To determine whether apoptosis is involved in the anti-proliferative effects of 8h, apoptosis assay was performed using SMMC-7721 cells. The cells were incubated with either vehicle alone, different concentrations of 8h (7.0 or 14 μM), or 14 μM 5-FU for 48 h, and then stained with FITC-Annexin V and propidium iodide (PI). The percentages of apoptotic SMMC-7721 cells were determined by flow cytometry analysis. In the vehicle group, the occurrence of SMMC-7721 cell apoptosis was minimal. […] Low concentration of 8h (7.0 μM) induced 46% SMMC-7721 cell apoptosis, while the higher dose (14 μM) of 8h induced 63% SMMC-7721 cell apoptosis.
Figure 4 Compound 8h induced SMMC-7721 cell apoptosis in vitro. SMMC-7721 cells were incubated with the indicated concentrations of 8h and 14 μM 5-FU for 48 h, and the cells were stained with FITC-Annexin V and PI, followed by flow cytometry analysis. (A) Flow cytometry analysis. (B) Quantitative analysis of apoptotic cells. Data are expressed as means ± SD of the percentages of apoptotic cells from three independent experiments. *P < 0.01 vs control.
SMMC-7721 cells were cultured overnight and incubated in triplicate with compound 8h (7.0 and 14 μM), 5-FU (14 μM), or vehicle for 48 h. The cells were harvested, and stained with FITC-Annexin V and PI (BioVision) at room temperature for 15 min. The percentage of apoptotic cells was determined by flow cytometry (Beckman Coulter) analysis.

[3] = test system: human cancer cells (SMMC-7721, Hep G2, HCT116, EJ, H460); experiment: MTT assay, summary statements across several human cancer cell lines; format: cell-based; conditions: Homo sapiens; SMMC-7721, Hep G2, HCT116; MTT; read-out: IC50 values for liver and colon cancer cells growth (range over cell lines)
Procedure: as §1, §2

HCT116 cells = experiment: MTT assay, proliferation of HCT116 cells; format: cell-based; conditions: Homo sapiens, HCT-116, 48 h, read-out: In vitro cytotoxicity (IC50) HCT116
Procedure: as §1, §2

LO2 cells = experiment: MTT assay, proliferation of normal liver LO2 cells; format: cell-based, human; conditions: 25 μM, 48 h, MTT assay
Procedure: Given the strong growth inhibitory activity of 8h in vitro, it was profiled for antitumor selectivity by examining its inhibitory effects on the growth of SMMC-7721 cells and LO2 cells (human hepatocellular normal cells).
Figure 3 (A) Inhibitory effects of 8h on the proliferation of SMMC-7721 and LO2 cells. Cells were incubated with the indicated concentrations of 8h for 48 h. Cell proliferation was assessed using the MTT assay. Data are means ± SD of the inhibition (%) from three independent experiments. (B) Inhibitory effects of 5h, 8h, and SA or the vehicle control against SMMC-7721 and LO2 cells. SMMC-7721 and LO2 cells were incubated with the indicated compounds at 25 μM for 48 h, and cell proliferation was assessed by the MTT assay. Data are means ± SD of the inhibition (%) from three independent experiments. *P < 0.01 versus control of SMMC-7721, ^#P < 0.01 inhibitory effects of 8h in SMMC-7721 versus LO2 cells.
as §2

| SMILES | IC50 (SMMC-7721 cells [1]) [µM] | IC50 (Hep G2 cells) [µM] | SMMC-7721 cell apoptosis (percentage of apoptotic cells) (SMMC-7721 cells [2]) [%] | IC50 [3] [µM] | IC50 (HCT116 cells) [µM] | Inhibitory effect on LO2 cells (LO2 cells) | inhibition at 25 µM (SMMC-7721 cells [1]; SMMC-7721, 25 μM, 48 h, MTT assay, read-out: Inhibition of SMMC-7721 cell proliferation) [%] |
| --- | --- | --- | --- | --- | --- | --- | --- |
| O=c1[nH]cc(F)c(=O)[nH]1 [5-FU, 5-fluorouracil, reference compound] | 28.7 | 35.2 | 22 | 19.6 to 35.2 | 19.6 |  |  |
| Cc1nc(C(=O)NCCCCCN)cc2c1[nH]c1ccccc12 [5h, N-(5-Aminopentyl)-1-methyl-9H-pyrido[3,4-b]indole-3-carboxamide] | 27.2 ± 3.4 |  |  |  |  | a similar effect was seen in the non-tumor LO2 cells; also recorded: high toxicities | ~42 |
